In ChEMBL document CHEMBL6087476, “Positive Charge-Concentrated Dimeric Lipopeptides with Enhanced Protease Resistance: A Potential Solution for Systemic Bacterial Infections” (J Med Chem, 2025):
Values after ≈ are worked out from the molar mass of the structure shown. Active and inactive are the calls of the source. The calls are words filed in the database; no cut-off is given here.

Assays:
Acinetobacter baumannii = assay: Antimicrobial activity against Acinetobacter baumannii AB1901 assessed as increase in absorbance incubated for 20 to 22 hrs; format: functional; details: time 20-22 hrs
Salmonella typhimurium = assay: Antimicrobial activity against Salmonella typhimurium 14028 assessed as increase in absorbance incubated for 20 to 22 hrs; format: functional, Salmonella enterica subsp. enterica serovar Typhimurium; details: Salmonella enterica, time 20-22 hrs
Enterococcus faecalis = assay: Antimicrobial activity against Enterococcus faecalis 29212 assessed as increase in absorbance incubated for 20 to 22 hrs; format: functional; details: time 20-22 hrs
Escherichia coli [1] = assay: Antibiofilm activity against Escherichia coli ATCC 25922 biofilm assessed as removal of matured biofilm at 16 uM; format: functional, organism-based
Escherichia coli [2] = assay: Bactericidal activity against Escherichia coli ATCC 25922 assessed as reduction in bacterial viability; format: functional, organism-based
Escherichia coli [3] = assay: Antimicrobial activity against Escherichia coli ATCC 25922 assessed as increase in absorbance incubated for 20 to 22 hrs in presence of K+ physiological salt; format: functional, organism-based; details: time 20-22 hrs

`CCCCCCCCCC(=O)NCCCC[C@H](N)C(=O)NCC(=O)NCC(=O)NCC(=O)N[C@H](CCCNC(=N)N)C(=O)N[C@@H](CCCNC(=N)N)C(=O)N[C@@H](CCCNC(=N)N)C(=O)N1CCC[C@H]1C(=O)N[C@@H](CSSC[C@H](NC(=O)[C@@H]1CCCN1C(=O)[C@H](CCCNC(=N)N)NC(=O)[C@H](CCCNC(=N)N)NC(=O)[C@@H](CCCNC(=N)N)NC(=O)CNC(=O)CNC(=O)CNC(=O)[C@@H](N)CCCCNC(=O)CCCCCCCCC)C(=O)O)C(=O)O` gave an MIC (Acinetobacter baumannii) of 4 µM (≈ 9.12 µg/mL), an MIC (Salmonella typhimurium) of 4 µM (≈ 9.12 µg/mL) and an MIC (Enterococcus faecalis) of 4 µM (≈ 9.12 µg/mL). The Activity (Escherichia coli [1]) was “Active”, the Activity (Escherichia coli [2]) was “Dose-dependent-effect” and the Activity (Escherichia coli [3]) was “Active; C-C10)C-C Demonstrated Superior Physiological Salt Tolerance In Comparison To (N-C10)C-C”.
